Earlier results, collected in US20060166974A1, “Azabenzoxazoles for the treatment of CNS disorders” (Pfizer Inc., priority 2004, published 2006).

half-life (in vivo): 6 to 7 h
protein binding (in vivo): extensive
Oral bioavailability (taken with food): approximately 60%
Compound: O=C1Cc2cc(CCN3CCN(c4nsc5ccccc45)CC3)c(Cl)cc2N1 [Ziprasidone, 5-[2-[4-(1,2-benzisothiazol-3-yl)piperazin-1-yl]ethyl]-6-chloroindolin-2-one]
